Marks after values point to notes of the source that are not given here.
What was measured:
mice = settings: over a period of 14 days; cited from earlier work
[1] = tested on: PTEN-P2/H2B-GFP mouse prostate cancer cells; assay: IVM pseudo-orthotopic prostate chamber model, tumor size
Experimental: Male Nude mice (25-35 g body weight) are anesthetized (7.3 mg ketamine hydrochloride and 2.3 mg xylazine/100 g body weight, i.p.) and placed on a heating pad. Two symmetrical titanium frames are implanted into a dorsal skinfold, so as to sandwich the extended double layer of skin. A 15 mm full thickness circular layer is excised. The underlying muscle (M. cutaneous max.) and subcutaneous tissues are covered with a glass coverslip incorporated in one of the frames. After a recovery period of 2-3 days, prostate tissue and cancer cell spheroids are carefully placed in the chamber. Small circular Band Aids are applied on the backside of the chamber after surgery to prevent scratching. Before surgery, Buprenorphine (0.1 mg/kg) is given IP. After surgery Meloxicam is given in the drinking water for 4 days Meloxicam (5.0 mg/ml), is added at 35 μl per 100 ml of water to be medicated.
Mice are anesthetized with 7.3 mg ketamine hydrochloride and 2.3 mg xylazine/100 g body weight, i.p. A lateral incision across the scrotum is made and the testes are individually ligated and excised. The wound is cauterized. The incision is then sutured and sealed with Nexaband® acrylic.
Preparation of tumor spheroids: Liquid overlay plates were generated using 1% molecular biology grade agarose melted in cell culture medium and plated in round bottom 96 well plates at 50 ul/well. Tumor cells grown as pre-confluent monolayers were trypsinized and diluted to a final volume of 1,000,000 cells/ml. Viability was determined by Trypan blue. Cells were placed onto the cooled agarose (70 μl/well) and allowed to compact into spheroids for 24 hours. The spheroids were picked with a pipette and transferred into serum-free media for implantation in the chambers.
IntraVital Microscopy (IVM) can be used to visualize tumors in animals and analyze various aspects of cancer physiology such as tumor vascularization, cell migration and metastasis. An advantage of IVM includes the real-time analysis of dynamic processes with single-cell resolution. IntraVital microscopy offers the possibility to follow tumor growth in a non-invasive, non-destructive manner. The application of IVM can be limited to animal models that bear visually accessible tumors. Therefore, the dorsal skinfold chamber model described above can be compatible with IVM. Using IVM can permit a number of parameters to be measured in living animals and as a function of time, including tumor growth, angiogenesis, infiltration by immune cells, tumor cell migration, mitosis (cell-division) and apoptosis (programmed cell death), all in the context of the host and in real time.
Unless otherwise indicated, Compound I was administered by oral gavage in a sesame oil (Carrier A) formulation. Compound I was dissolved in DMSO then in oil at a concentration of 0.25 mg/ml (weight/volume) with a final DMSO concentration of 0.5% (vol/vol), and administered to mice at 1 mg/kg. In some experiments, Compound I dissolved in a mixture of poly-ethylene glycol/DMSO 30% (w/v) was administered via intra-peritoneal injection.
The efficacy of the formulation of Compound I in Carrier A for oral administration was compared to the previous formulation of Compound I in poly-ethylene glycol (PEG) for intra-peritoneal injection (i.p.). These experiments were performed using Intra Vital Microscopy (IVM) in a pseudo-orthotopic prostate chamber model in which minced prostate tissue is grafted in chambers surgically placed in the dorsal skinfold of mice, and allowed to vascularize. Small tumor cells spheroids were then placed on the prostate tissue, creating a biologically relevant prostatic environment. The tumor cells that express fluorescent H2B-GFP and can be detected in situ and in real-time through the microscopy window of the dorsal chamber.
Epithelial cell lines derived from the prostate tumor of a PTEN-null mouse were used. Mouse prostate cancer cells PTEN-P2 are heterozygous for PTEN deletion and do express protein PTEN.

[2] = Forced degradation: solution stability in aqueous media (HPLC)

CC1=CC(=O)c2c(O)cccc2C1=O [Compound I, 5-hydroxy-2-methylnaphthalene-1,4-dione]
LD50 (mice): 8 mg/kg | Stability of formulations of Compound I in PEG (5 mg/g): 50% | Stability of the formulation in Carrier A (sesame oil), Potency as Amount (3 day, 4.6 mg/mL): 4200 µg/mL | Tumor regression at higher doses ([1]; 3 and 10 mg/kg/day in oil, oral, castrated mice): no improvement over the dose of 1 mg/kg/day | Combination efficacy ([1]; Compound I administered orally in combination with surgical castration): Yes | Shrinkage of the tumors ([1]; Compound I in Carrier A orally 1 mg/kg/day with degarelix): approximately 50% | Tumor size relative to the starting size ([1]; Compound I in Carrier A orally with abiraterone/prednisone): less than 60% | Effect on tumor size ([1]; Compound I in Carrier A orally with bicalutamide): did not result in a reduction of initial tumor size | Shrinkage of the tumor size ([1]; Compound I in Carrier A orally with dutasteride): approximately 30% | Effect on tumor size ([1]; Compound I in Carrier A orally with enzalutamide): did not result in a reduction in tumor size | Tumor size relative to the starting size ([1]; Compound I in Carrier A orally with orteronel): less than 60% | Decrease of tumor sizes ([1]; Compound I in PEG, i.p. 1 mg/kg/day, castrated mice, p<0.001): 50% | Effectiveness vs drug alone ([1]; combination of bicalutamide with Compound I): no more effective than treatment with the drug alone | Effectiveness vs drug alone ([1]; combination of enzalutamide with Compound I): no more effective than treatment with the drug alone | Effect on tumor size ([1]; combination of leuprolide and the oral formulation of Compound I): caused the tumors to shrink | Tumor flare vs leuprolide alone ([1]; combination of the oral formulation of Compound I and leuprolide): shorter and of lesser amplitude | Efficiency vs combination with surgical castration ([1]; combination with 2 mg/kg dutasteride): nearly as efficient as the combination of Compound I with surgical castration | Efficiency vs chemical ADT by itself ([1]; combination with abiraterone/prednisone vs abiraterone/prednisone): more efficient | Shrinkage vs comparator combination ([1]; combination with abiraterone/prednisone, comparator printed as combination of Compound I and abiraterone/prednisone): more shrinkage of tumors | Shrinkage vs combination of Compound I and castration ([1]; combination with degarelix): more shrinkage of tumors | Efficiency vs chemical ADT by itself ([1]; combination with degarelix vs degarelix): more efficient | Dose dependence of tumor regression ([1]; combination with dutasteride at 2, 0.3, 0.1, 0.03 mg/kg): tumor regression proportionally to the dose of dutasteride | Efficiency vs chemical ADT by itself ([1]; combination with dutasteride vs dutasteride, p<0.001): more efficient | Shrinkage vs combination of Compound I and castration ([1]; combination with orteronel): more shrinkage of tumor size | Efficiency vs chemical ADT by itself ([1]; combination with orteronel vs orteronel): more efficient | Maximum tumor size reached, relative to initial tumor size ([1]; leuprolide plus Compound I orally 1 mg/kg/day, p=0.014 between treatments): 120% | Tumor regression at lower doses ([1]; lower doses than 1 mg/kg/day (FIG. 3B), oral in Carrier A, castrated mice): less efficient at causing tumor regression | Tolerability of oral administration ([1]; mice, up to 10 mg/kg/day for 21 days, no changes in whole body weights or animal behavior): well tolerated | Dose of optimal effect ([1]; oil formulation, oral, castrated mice): 1 mg/kg/day | Tumor regression, oral formulation versus i.p. formulation ([1]; oral 1 mg/kg/day in Carrier A, castrated mice): as effectively as i.p. injection of 1 mg/kg Compound I in PEG | Dose at which Compound I was maximally effective ([1]; see Example 5): 1 mg/kg | Solution Stability in Aqueous Media, Purity ([2]; pH 1, 50% DMSO, 25° C./60% RH, t = 0): 99.32 % Area | Solution Stability in Aqueous Media, Purity ([2]; pH 1, 50% DMSO, 25° C./60% RH, t = 1 week): 98.83 % Area | Solution Stability in Aqueous Media, Purity ([2]; pH 1, 50% DMSO, 25° C./60% RH, t = 2 week): 98.73 % Area | Solution Stability in Aqueous Media, Purity ([2]; pH 1, 50% DMSO, 40° C./75% RH, t = 1 week): 98.12 % Area | Solution Stability in Aqueous Media, Purity ([2]; pH 1, 50% DMSO, 40° C./75% RH, t = 2 week): 95.79 % Area | Solution Stability in Aqueous Media, Purity ([2]; pH 2, 50% DMSO, 25° C./60% RH, t = 0): 98.83 % Area | Solution Stability in Aqueous Media, Purity ([2]; pH 2, 50% DMSO, 25° C./60% RH, t = 1 week): 98.48 % Area | Solution Stability in Aqueous Media, Purity ([2]; pH 2, 50% DMSO, 25° C./60% RH, t = 2 week): 96.90 % Area | Solution Stability in Aqueous Media, Purity ([2]; pH 2, 50% DMSO, 40° C./75% RH, t = 1 week, precipitation observed): 93.43^‡ % Area | Solution Stability in Aqueous Media, Purity ([2]; pH 2, 50% DMSO, 40° C./75% RH, t = 2 week, precipitation observed): 85.79^‡ % Area | Solution Stability in Aqueous Media, Purity ([2]; pH 3, 50% DMSO, 25° C./60% RH, t = 0): 98.85 % Area | Solution Stability in Aqueous Media, Purity ([2]; pH 3, 50% DMSO, 25° C./60% RH, t = 1 week): 97.09 % Area
